Data: ChEMBL document CHEMBL4665869, “New thiazolopyrimidine as anticancer agents: Synthesis, biological evaluation, DNA binding, molecular modeling and ADMET study” (Bioorg Med Chem Lett, 2020)
Values after ≈ are worked out from the molar mass of the structure shown.

Tests used:
NCI-H522 = experiment: Growth inhibition of human NCI-H522 cells at 10 uM relative to control; type: functional; details: read-out: GI
786-0 = experiment: Growth inhibition of human 786-0 cells at 10 uM relative to control; type: functional; details: read-out: GI
MOLT-4 = experiment: Growth inhibition of human MOLT-4 cells at 10 uM relative to control; type: functional; details: read-out: GI
HCT-15 = experiment: Growth inhibition of human HCT-15 cells at 10 uM relative to control; type: functional; details: read-out: GI
U-251 = experiment: Growth inhibition of human U-251 cells at 10 uM relative to control; type: functional; details: read-out: GI
SF-539 = experiment: Growth inhibition of human SF-539 cells at 10 uM relative to control; type: functional; details: read-out: GI
NCI-H460 = experiment: Growth inhibition of human NCI-H460 cells at 10 uM relative to control; type: functional; details: read-out: GI
COLO 205 = experiment: Growth inhibition of human COLO 205 cells at 10 uM relative to control; type: functional; details: read-out: GI
SK-MEL-2 = experiment: Growth inhibition of human SK-MEL-2 cells at 10 uM relative to control; type: functional; details: read-out: GI
KM12 = experiment: Growth inhibition of human KM12 cells at 10 uM relative to control; type: functional; details: read-out: GI
SNB-75 = experiment: Growth inhibition of human SNB-75 cells at 10 uM relative to control; type: functional; details: read-out: GI
MDA-MB-231 = experiment: Growth inhibition of human MDA-MB-231 cells at 10 uM relative to control; type: functional; details: read-out: GI
NCI-H23 = experiment: Growth inhibition of human NCI-H23 cells at 10 uM relative to control; type: functional; details: read-out: GI
SNB-19 = experiment: Growth inhibition of human SNB-19 cells at 10 uM relative to control; type: functional; details: read-out: GI
OVCAR-4 = experiment: Growth inhibition of human OVCAR-4 cells at 10 uM relative to control; type: functional; details: read-out: GI
SW-620 = experiment: Growth inhibition of human SW-620 cells at 10 uM relative to control; type: functional; details: read-out: GI
RXF 393 = experiment: Growth inhibition of human RXF 393 cells at 10 uM relative to control; type: functional; details: read-out: GI
BT-549 = experiment: Growth inhibition of human BT-549 cells at 10 uM relative to control; type: functional; details: read-out: GI
K562 = experiment: Growth inhibition of human K562 cells at 10 uM relative to control; type: functional; details: read-out: GI
ACHN = experiment: Growth inhibition of human ACHN cells at 10 uM relative to control; type: functional; details: read-out: GI
SK-OV-3 = experiment: Growth inhibition of human SK-OV-3 cells at 10 uM relative to control; type: functional; details: read-out: GI
HOP-62 = experiment: Growth inhibition of human HOP-62 cells at 10 uM relative to control; type: functional; details: read-out: GI
NCI-H322M = experiment: Growth inhibition of human NCI-H322M cells at 10 uM relative to control; type: functional; details: read-out: GI
Hs-578T = experiment: Growth inhibition of human Hs-578T cells at 10 uM relative to control; type: functional; details: read-out: GI
Malme-3M = experiment: Growth inhibition of human Malme-3M cells at 10 uM relative to control; type: functional; details: read-out: GI
UACC-257 = experiment: Growth inhibition of human UACC-257 cells at 10 uM relative to control; type: functional; details: read-out: GI
CCRF-CEM = experiment: Growth inhibition of human CCRF-CEM cells at 10 uM relative to control; type: functional; details: read-out: GI
SR = experiment: Growth inhibition of human SR cells at 10 uM relative to control; type: functional; details: read-out: GI
HT-29 = experiment: Growth inhibition of human HT-29 cells at 10 uM relative to control; type: functional; details: read-out: GI
UO-31 = experiment: Growth inhibition of human UO-31 cells at 10 uM relative to control; type: functional; details: read-out: GI
MDA-MB-468 = experiment: Growth inhibition of human MDA-MB-468 cells at 10 uM relative to control; type: functional; details: read-out: GI
DU-145 = experiment: Growth inhibition of human DU-145 cells at 10 uM relative to control; type: functional; details: read-out: GI
NCI-H226 = experiment: Growth inhibition of human NCI-H226 cells at 10 uM relative to control; type: functional; details: read-out: GI
NCI/ADR-RES = experiment: Growth inhibition of human NCI/ADR-RES cells at 10 uM relative to control; type: functional; details: read-out: GI
A498 = experiment: Growth inhibition of human A498 cells at 10 uM relative to control; type: functional; details: read-out: GI
UACC-62 = experiment: Growth inhibition of human UACC-62 cells at 10 uM relative to control; type: functional; details: read-out: GI
SF-295 = experiment: Growth inhibition of human SF-295 cells at 10 uM relative to control; type: functional; details: read-out: GI
A549 = experiment: Growth inhibition of human A549 cells at 10 uM relative to control; type: functional; details: read-out: GI
SN12C = experiment: Growth inhibition of human SN12C cells at 10 uM relative to control; type: functional; details: read-out: GI
HCT-116 = experiment: Growth inhibition of human HCT-116 cells at 10 uM relative to control; type: functional; details: read-out: GI
T47D = experiment: Growth inhibition of human T47D cells at 10 uM relative to control; type: functional; details: read-out: GI
OVCAR-8 = experiment: Growth inhibition of human OVCAR-8 cells at 10 uM relative to control; type: functional; details: read-out: GI
RPMI-8226 = experiment: Growth inhibition of human RPMI-8226 cells at 10 uM relative to control; type: functional; details: read-out: GI
HCC 2998 = experiment: Growth inhibition of human HCC 2998 cells at 10 uM relative to control; type: functional; details: read-out: GI
OVCAR-5 = experiment: Growth inhibition of human OVCAR-5 cells at 10 uM relative to control; type: functional; details: read-out: GI
MCF7 = experiment: Growth inhibition of human MCF7 cells at 10 uM relative to control; type: functional; details: read-out: GI
DNA = experiment: Displacement of methyl green from DNA (unknown origin) assessed as DNA intercalation after 24 hrs by colorimetric assay; type: nucleic-acid assay
MDA-MB-435 = experiment: Growth inhibition of human MDA-MB-435 cells at 10 uM relative to control; type: functional; details: read-out: GI
LOX IMVI = experiment: Growth inhibition of human LOX IMVI cells at 10 uM relative to control; type: functional; details: read-out: GI
IGROV-1 = experiment: Growth inhibition of human IGROV-1 cells at 10 uM relative to control; type: functional; details: read-out: GI
HOP-92 = experiment: Growth inhibition of human HOP-92 cells at 10 uM relative to control; type: functional; details: read-out: GI
HL-60(TB) = experiment: Growth inhibition of human HL-60(TB) cells at 10 uM relative to control; type: functional; details: read-out: GI
SF-268 = experiment: Growth inhibition of human SF-268 cells at 10 uM relative to control; type: functional; details: read-out: GI
TK-10 = experiment: Growth inhibition of human TK-10 cells at 10 uM relative to control; type: functional; details: read-out: GI
SK-MEL-28 = experiment: Growth inhibition of human SK-MEL-28 cells at 10 uM relative to control; type: functional; details: read-out: GI
CAKI-1 = experiment: Growth inhibition of human CAKI-1 cells at 10 uM relative to control; type: functional; details: read-out: GI
SK-MEL-5 = experiment: Growth inhibition of human SK-MEL-5 cells at 10 uM relative to control; type: functional; details: read-out: GI
M14 = experiment: Growth inhibition of human M14 cells at 10 uM relative to control; type: functional; details: read-out: GI

COc1ccc(/C=C/C2=CC(c3ccc(OC)c(OC)c3)N3C=CSC3=N2)cc1OC (centres undefined)
inhibition of growth at 10 µM (NCI-H522): < 10%
inhibition of growth at 10 µM (786-0): < 10%
inhibition of growth at 10 µM (MOLT-4): < 10%
inhibition of growth at 10 µM (HCT-15): < 10%
inhibition of growth at 10 µM (U-251): < 10%
inhibition of growth at 10 µM (SF-539): < 10%
inhibition of growth at 10 µM (NCI-H460): < 10%
inhibition of growth at 10 µM (COLO 205): < 10%
inhibition of growth at 10 µM (SK-MEL-2): < 10%
inhibition of growth at 10 µM (KM12): < 10%
inhibition of growth at 10 µM (SNB-75): < 10%
inhibition of growth at 10 µM (MDA-MB-231): < 10%
inhibition of growth at 10 µM (NCI-H23): < 10%
inhibition of growth at 10 µM (SNB-19): < 10%
inhibition of growth at 10 µM (OVCAR-4): < 10%
inhibition of growth at 10 µM (SW-620): < 10%
inhibition of growth at 10 µM (RXF 393): < 10%
inhibition of growth at 10 µM (BT-549): < 10%
inhibition of growth at 10 µM (K562): < 10%
inhibition of growth at 10 µM (ACHN): < 10%
inhibition of growth at 10 µM (SK-OV-3): < 10%
inhibition of growth at 10 µM (HOP-62): < 10%
inhibition of growth at 10 µM (NCI-H322M): < 10%
inhibition of growth at 10 µM (Hs-578T): < 10%
inhibition of growth at 10 µM (Malme-3M): < 10%
inhibition of growth at 10 µM (UACC-257): 12.8%
inhibition of growth at 10 µM (CCRF-CEM): < 10%
inhibition of growth at 10 µM (SR): 13.8%
inhibition of growth at 10 µM (HT-29): < 10%
inhibition of growth at 10 µM (UO-31): 11.3%
inhibition of growth at 10 µM (MDA-MB-468): < 10%
inhibition of growth at 10 µM (DU-145): < 10%
inhibition of growth at 10 µM (NCI-H226): < 10%
inhibition of growth at 10 µM (NCI/ADR-RES): < 10%
inhibition of growth at 10 µM (A498): 25.6%
inhibition of growth at 10 µM (UACC-62): < 10%
inhibition of growth at 10 µM (SF-295): < 10%
inhibition of growth at 10 µM (A549): < 10%
inhibition of growth at 10 µM (SN12C): < 10%
inhibition of growth at 10 µM (HCT-116): < 10%
inhibition of growth at 10 µM (T47D): < 10%
inhibition of growth at 10 µM (OVCAR-8): < 10%
inhibition of growth at 10 µM (RPMI-8226): < 10%
inhibition of growth at 10 µM (HCC 2998): < 10%
inhibition of growth at 10 µM (OVCAR-5): < 10%
inhibition of growth at 10 µM (MCF7): < 10%
IC50 (DNA): 30.05 µg/mL (≈ 68.8 µM)
inhibition of growth at 10 µM (MDA-MB-435): < 10%
inhibition of growth at 10 µM (LOX IMVI): < 10%
inhibition of growth at 10 µM (IGROV-1): < 10%
inhibition of growth at 10 µM (HOP-92): < 10%
inhibition of growth at 10 µM (HL-60(TB)): < 10%
inhibition of growth at 10 µM (SF-268): < 10%
inhibition of growth at 10 µM (TK-10): < 10%
inhibition of growth at 10 µM (SK-MEL-28): < 10%
inhibition of growth at 10 µM (CAKI-1): < 10%
inhibition of growth at 10 µM (SK-MEL-5): < 10%
inhibition of growth at 10 µM (M14): < 10%

COc1ccc(/C=C/C2=CC(c3ccc(OC)c(OC)c3)N3C=C(C)SC3=N2)cc1OC (centres undefined)
IC50 (DNA): 58.32 µg/mL (≈ 129 µM)

COc1ccc(/C=C/C2=CC(c3ccc(OC)cc3)N3C=C(C)SC3=N2)cc1 (centres undefined)
IC50 (DNA): 41.37 µg/mL (≈ 106 µM)

CC1=CN2C(=NC(/C=C/c3cccs3)=CC2c2cccs2)S1 (centres undefined)
IC50 (DNA): 76.15 µg/mL (≈ 222 µM)

CCOC(=O)C1=CSC2=NC(/C=C/c3ccc(C)cc3)=CC(c3ccc(C)cc3)N12 (centres undefined)
IC50 (DNA): 31.49 µg/mL (≈ 75.6 µM)

CCOC(=O)C1=CSC2=NC(/C=C/c3ccc(OC)cc3)=CC(c3ccc(OC)cc3)N12 (centres undefined)
IC50 (DNA): 28.38 µg/mL (≈ 63.3 µM)

COc1ccc(/C=C/C2=CC(c3ccc(OC)cc3)N3C(C)=CSC3=N2)cc1 (centres undefined)
IC50 (DNA): 42.5 µg/mL (≈ 109 µM)
